Assay results published in the RepoRT retention time repository (doi:10.1007/s11356-017-9929-x).

Assay: RP, GL Sciences Inertsil ODS-4, 150 × 2.1 mm, 3 µm, 40 °C, 0.3 mL/min, estimated dead time 1.1 min; A: water + 5 mM ammonium acetate; B: methanol + 5 mM ammonium acetate; gradient (min/%B) 0/5 30/95 50/95
Settings: stereoisomer not certain

Point of comparison: `Oc1ccc2nc(-c3cscn3)[nH]c2c1`, LC retention time 16.1 min. Against it:
- CCCCc1c(C)nc(N(C)C)[nH]c1=O — within 1.5-fold, 23.4 min
- CC1CCCCC1NC(=O)Nc1ccccc1 (configuration not stated) — 1.6-fold higher, 25.6 min
- CC(C)NCC(O)COc1ccc(COCCOC(C)C)cc1 (configuration not stated) — within 1.5-fold, 20 min
- CN(C)C(=O)Nc1cc(C(C)(C)C)on1 — within 1.5-fold, 21.6 min
- CON=C(C)c1cccc(Oc2nc(OC)cc(OC)n2)c1C(=O)OC — 1.6-fold higher, 26.5 min
- COC(=O)c1ccc(CNS(C)(=O)=O)cc1S(=O)(=O)NC(=O)Nc1nc(OC)cc(OC)n1 — within 1.5-fold, 17.4 min
- CC(C)NCC(O)c1ccc(NS(C)(=O)=O)cc1 (configuration not stated) — 1.8-fold lower, 9.08 min
- CCCCNC(=O)NS(=O)(=O)c1ccc(C)cc1 — within 1.5-fold, 19.6 min
- COc1cc(OC)nc(NC(=O)NS(=O)(=O)Nc2ccccc2C(=O)C2CC2)n1 — within 1.5-fold, 23.6 min
- CCC1OC(=O)C(C)C(OC2CC(C)(OC)C(O)C(C)O2)C(C)C(OC2OC(C)CC(N(C)C)C2O)C(C)(OC)CC(C)C(=O)C(C)C(O)C1(C)O (configuration not stated) — 1.7-fold higher, 27.2 min
- CC(C)(C)NCC(O)c1cc(O)cc(O)c1 (configuration not stated) — 1.8-fold lower, 8.97 min
- CN(C)CCCN1c2ccccc2CCc2ccccc21 — 1.6-fold higher, 26 min
- [2H]C([2H])([2H])NC(=O)ON=C(C)SC — within 1.5-fold, 11.9 min
- COC(=O)c1ccccc1S(=O)(=O)NC(=O)N(C)c1nc(C)nc(OC)n1 — within 1.5-fold, 16.9 min
- CC(=O)CC(c1ccccc1)c1c(O)c2ccccc2oc1=O (configuration not stated) — within 1.5-fold, 19.1 min
- CCC1OC(=O)C(C)C(OC2CC(C)(OC)C(O)C(C)O2)C(C)C(OC2OC(C)CC(N(C)C)C2O)C(C)(O)CC(C)C(=O)C(C)C(O)C1(C)O (configuration not stated) — 1.6-fold higher, 25.5 min
- COC(=O)c1ccccc1S(=O)(=O)NC(=O)Nc1nc(C)nc(OC)n1 — within 1.5-fold, 13.9 min
- CC12CCC(=O)C=C1CCC1C2CCC2(C)C(O)CCC12 (configuration not stated) — 1.7-fold higher, 26.6 min
- CCOC(=O)CCN(SN(C)C(=O)Oc1cccc2c1OC(C)(C)C2)C(C)C — 1.9-fold higher, 31.1 min
- CC1=CC(O)CC(=O)Cc2nc(co2)C(=O)N2CCC=C2C(=O)OC(C(C)C)C(C)C=CC(=O)NCC=C1 (configuration not stated) — 1.5-fold higher, 24.4 min
- COC=C(C(=O)OC)c1ccccc1Oc1cc(Oc2ccccc2C#N)ncn1 — 1.6-fold higher, 26.1 min
- NC1=NCC2c3ccccc3Cc3ccccc3N12 (configuration not stated) — within 1.5-fold, 20.1 min
- COc1cc(OC)nc(NC(=O)NS(=O)(=O)c2cc(NC=O)ccc2C(=O)N(C)C)n1 — within 1.5-fold, 15.9 min
- CNC(=C[N+](=O)[O-])NCCSCc1ccc(CN(C)C)o1 — within 1.5-fold, 12.5 min
- COC(=O)c1sccc1S(=O)(=O)NC(=O)Nc1nc(C)nc(OC)n1 — within 1.5-fold, 13.9 min
- CC(=O)CCCCn1c(=O)c2c(ncn2C)n(C)c1=O — within 1.5-fold, 17.4 min
- CCOC(=O)NCCOc1ccc(Oc2ccccc2)cc1 — 1.8-fold higher, 28.8 min
- CCC1CCCC(OC2CCC(N(C)C)C(C)O2)C(C)C(=O)C2=CC3C(C=C(C)C4CC(OC5OC(C)C(OC)C(OC)C5OC)CC43)C2CC(=O)O1 (configuration not stated) — 2.2-fold higher, 34.9 min
- CNC(=O)C(=NOC)c1ccccc1Oc1ccccc1 — 1.5-fold higher, 24.6 min
- COc1ccc2c(c1)C13CCCCC1C(C2)N(C)CC3 (configuration not stated) — 1.5-fold higher, 24.2 min
- [2H]C([2H])([2H])OP(N)(=O)SC([2H])([2H])[2H] (configuration not stated) — 3.8-fold lower, 4.22 min
- [2H]C([2H])([2H])Oc1cc(NS(=O)(=O)c2ccc(N)cc2)nc(OC([2H])([2H])[2H])n1 — within 1.5-fold, 15.1 min
- CCS(=O)(=O)c1nc2ccccn2c1S(=O)(=O)NC(=O)Nc1nc(OC)cc(OC)n1 — within 1.5-fold, 16.3 min
- [2H]c1c([2H])c(S(=O)(=O)Nc2cc(C)on2)c([2H])c([2H])c1N — 1.6-fold lower, 9.83 min
- CN1C2CC(OC(=O)C(CO)c3ccccc3)CC1C1OC12 (configuration not stated) — within 1.5-fold, 16.4 min
- COP(=O)(OC)Oc1ccc(S(C)=O)c(C)c1 (configuration not stated) — within 1.5-fold, 16.9 min
- CC12C=CC(=O)C=C1CCC1C2C(O)CC2(C)C1CCC2(O)C(=O)CO (configuration not stated) — within 1.5-fold, 22.2 min
- Cc1cccc2sc3nncn3c12 — within 1.5-fold, 18.9 min
- CNC(=O)Oc1cccc2c1OC(C)(C)C2 — within 1.5-fold, 21.4 min
- CC(C)NCC(O)COc1cccc2ccccc12 (configuration not stated) — within 1.5-fold, 21.8 min
- CCOC(=O)c1cnn(C)c1S(=O)(=O)NC(=O)Nc1nc(OC)cc(OC)n1 — within 1.5-fold, 18.2 min
- CC(C)C1(C)N=C(c2nc3ccccc3cc2C(=O)O)NC1=O (configuration not stated) — within 1.5-fold, 14.7 min
- Cc1ccnc(NS(=O)(=O)c2ccc(N)cc2)n1 — within 1.5-fold, 11.6 min
- CCC(C(=O)O)C1CCC(C)C(C(C)C(O)C(C)C(=O)C(CC)C2OC3(C=CC(O)C4(CCC(C)(C5CCC(O)(CC)C(C)O5)O4)O3)C(C)CC2C)O1 (configuration not stated) — 2.2-fold higher, 35.5 min
- COc1cc(NS(=O)(=O)c2ccc(N)cc2)ncn1 — within 1.5-fold, 11.8 min
- COCCc1ccc(OCC(O)CNC(C)C)cc1 (configuration not stated) — within 1.5-fold, 17.8 min
- Cc1cc(C)cc(C(=O)N(NC(=O)c2ccc3c(c2C)CCCO3)C(C)(C)C)c1 — 1.7-fold higher, 27.9 min
- CN(C)CCC=C1c2ccccc2CCc2ccccc21 — 1.7-fold higher, 28.1 min
- COc1cc(NS(=O)(=O)c2ccc(N)cc2)nc(OC)n1 — within 1.5-fold, 15.5 min
- [2H]C([2H])([2H])NC(=O)Oc1cccc2c1OC(C)(C)C2 — within 1.5-fold, 20.5 min
- CSc1nc(NC(C)C)nc(NC(C)C)n1 — 1.7-fold higher, 27.6 min
- C#CC1(OC(C)=O)CCC2C3CCC4=CC(=NO)CCC4C3CCC21CC (configuration not stated) — 1.9-fold higher, 30.3 min
- CC(C)NCC(O)COc1ccc(CCOCC2CC2)cc1 (configuration not stated) — within 1.5-fold, 21.6 min
- CSc1nnc(C(C)(C)C)c(=O)n1N — within 1.5-fold, 20.6 min
- Nc1ccc(S(=O)(=O)Nc2nccs2)cc1 — 1.5-fold lower, 10.6 min
- [2H]C([2H])([2H])N=C(NC#N)NCCSCc1nc[nH]c1C — within 1.5-fold, 13.3 min
- CCOc1ccc(NC(C)=O)cc1 — within 1.5-fold, 18.5 min
- COc1ccc(CCN(C)CCCC(C#N)(c2ccc(OC)c(OC)c2)C(C)C)cc1OC (configuration not stated) — 1.7-fold higher, 26.7 min
- CC(Oc1ccc2ccccc2c1)C(=O)Nc1ccccc1 (configuration not stated) — 1.8-fold higher, 28.8 min
- Cc1cc(C2CC2)nc(Nc2ccccc2)n1 — 1.9-fold higher, 29.8 min
- CNC(=O)N(C)c1nnc(C(C)(C)C)s1 — within 1.5-fold, 21.7 min
- CN1CCN(CC(=O)N2c3ccccc3C(=O)Nc3cccnc32)CC1 — within 1.5-fold, 15.8 min
- CCCC(=NOCC)C1=C(O)CC(CC(C)SCC)CC1=O (configuration not stated) — 1.6-fold higher, 25.6 min
- Cc1nc(N(C)C)nc(OC(=O)N(C)C)c1C — within 1.5-fold, 23.4 min
- CC(C)NCC(O)COc1cccc2[nH]c3ccccc3c12 (configuration not stated) — within 1.5-fold, 20 min
- CCCC1CC(C(=O)NC(C(C)O)C2OC(SC)C(O)C(O)C2O)N(C)C1 (configuration not stated) — within 1.5-fold, 21 min
- [2H]c1c([2H])c([2H])c2[nH]c(NC(=O)OC)nc2c1[2H] — within 1.5-fold, 17.1 min
- CCC(C)c1ccccc1OC(=O)NC (configuration not stated) — 1.6-fold higher, 25.2 min
- Cc1nnc(NS(=O)(=O)c2ccc(N)cc2)s1 — 1.8-fold lower, 9.03 min
- Cc1ccc(NC(=O)NC(C)(C)c2ccccc2)cc1 — 1.7-fold higher, 26.7 min
- CC1=NNC(=O)N(N=Cc2cccnc2)C1 — within 1.5-fold, 13 min
- OCCN(CCO)c1nc(N2CCCCC2)c2nc(N(CCO)CCO)nc(N3CCCCC3)c2n1 — 1.8-fold higher, 28.4 min
- Nc1ccc(S(=O)(=O)Nc2ncccn2)cc1 — 2-fold lower, 8.05 min
- COC(=O)c1ccccc1CS(=O)(=O)NC(=O)Nc1nc(OC)cc(OC)n1 — within 1.5-fold, 22.1 min
- COc1cc(C)nc(-n2nc(C)cc2OC)n1 — within 1.5-fold, 21.3 min
- Cc1ccc(C(=O)C(C)CN2CCCCC2)cc1 (configuration not stated) — within 1.5-fold, 23.4 min
- CCC1CCCC(OC2CCC(N(C)C)C(C)O2)C(C)C(=O)C2=CC3C(C=CC4CC(OC5OC(C)C(OC)C(OC)C5OC)CC43)C2CC(=O)O1 (configuration not stated) — 2.1-fold higher, 34.5 min
- COC(=O)NN=Cc1c[n+]([O-])c2ccccc2[n+]1[O-] — within 1.5-fold, 15 min
- [2H]C([2H])([2H])N(C(=O)Oc1nc(N(C)C)nc(C)c1C)C([2H])([2H])[2H] — within 1.5-fold, 22.8 min
- COCCOc1ccccc1S(=O)(=O)NC(=O)Nc1nc(OC)nc(OC)n1 — within 1.5-fold, 15.5 min
- CNC(=O)N(C)c1nc2ccccc2s1 — within 1.5-fold, 23.8 min
- NC(=O)N1c2ccccc2C=Cc2ccccc21 — within 1.5-fold, 21.9 min
- COc1cc(C)c(Cc2cnc(N)nc2N)cc1OC — within 1.5-fold, 17.6 min
- CCNc1nc(NC(C)C)nc(SC)n1 — 1.6-fold higher, 25.9 min
- CC(C(O)c1ccc(O)cc1)N1CCC(Cc2ccccc2)CC1 (configuration not stated) — within 1.5-fold, 21 min
- COc1cc(OC)nc(NC(=O)NS(=O)(=O)c2c(-c3nnn(C)n3)cnn2C)n1 — within 1.5-fold, 14.7 min
- CN=C(NC#N)NCCSCc1nc[nH]c1C — within 1.5-fold, 13.3 min
- Cc1cc(=O)n(-c2ccccc2)n1C — within 1.5-fold, 15.4 min
- CCCCOC(=O)N(C)SN(C)C(=O)Oc1cccc2c1OC(C)(C)C2 — 2-fold higher, 31.5 min
- COP(=S)(OC)Oc1ccc(S(C)=O)c(C)c1 (configuration not stated) — within 1.5-fold, 22.2 min
- CCOc1nc(NC)nc(NC(=O)NS(=O)(=O)c2ccccc2C(=O)OC)n1 — within 1.5-fold, 17.7 min
- CC#Cc1cc(C)nc(Nc2ccccc2)n1 — 1.7-fold higher, 28.1 min
- OC(CCCN1CCCCC1)(c1ccccc1)c1ccccc1 — within 1.5-fold, 23.2 min
- CC(C)(C)NCC(O)c1ccc(O)c(CO)c1 (configuration not stated) — 1.7-fold lower, 9.3 min
- Cc1nn(C)c(Oc2ccccc2)c1C=NOCc1ccc(C(=O)OC(C)(C)C)cc1 — 2.1-fold higher, 33.5 min
- CSC1=NC(C)(c2ccccc2)C(=O)N1Nc1ccccc1 (configuration not stated) — 1.6-fold higher, 26.3 min
